The results in this text go back to patent US9388148B2, “Acylaminocycloalkyl compounds suitable for treating disorders that respond to modulation of dopamine D3 receptor” (AbbVie Deutschland GmbH & Co. KG, priority 2013, dated 2016).

Series [1] addresses T1, human dopamine D2L receptors (long isoform) (Homo sapiens, UniProt P14416).
T1 construct: expressed in transfected cells; host or cells: HEK-293
Description: Dopamine D2L receptor binding ([125I]iodospiperone displacement). As to conditions: selectivity ratio, human D2L vs human D3 binding. Here is the method: The substance to be tested was either dissolved in methanol/Chremophor® (BASF SE) or in dimethyl sulfoxide and then diluted with water to the desired concentration.
Each assay mixture was run in triplicate. • The incubation buffer contained 50 mM tris, 120 mM NaCl, 5 mM KCl, 2 mM CaCl2, 2 mM MgCl2 and 0.1% bovine serum albumin, 10 μM quinolone and 0.1% ascorbic acid (prepared fresh daily). […] Each assay mixture was run in triplicate. • The incubation buffer contained 50 mM tris, 120 mM NaCl, 5 mM KCl, 2 mM CaCl2, 2 mM MgCl2 and 0.1% bovine serum albumin. The buffer was adjusted to pH 7.4 with HCl. c) Measurement and analysis: • After having been incubated at 25° C. for 60 minutes, the assay mixtures were filtered through a Whatman GF/B glass fiber filter under vacuum using a cell col-lecting device. The filters were transferred to scintillation viols using a filter transfer system. After 4 ml of Ultima Gold® (Packard) have been added, the samples were shaken for one hour and the radioactivity was then counted in a Beta-Counter (Packard, Tricarb 2000 or 2200CA).

A short description of series [2]: Determination of the microsomal half-life / microsomal clearance. The format is in vitro ADME. As to conditions: pH 7.4; human liver microsomes, 0.5 μM test substance, 0.25 mg protein/ml, NADPH, 37° C.; read-out: Human mCl (mikrosomal clearance). Here is the method: The metabolic stability of the compounds of the invention was determined in the following assay.
The test substances were incubated in a concentration of 0.5 μM as follows:
0.5 μM test substance are preincubated together with liver microsomes from different species (from rat, human or other species) (0.25 mg of microsomal protein/ml) in 0.05 M potassium phosphate buffer of pH 7.4 in microtiter plates at 37° C. for 5 min. The reaction is started by adding NADPH (1 mg/mL). After 0, 5, 10, 15, 20 and 30 min, 50 μl aliquots are removed, and the reaction is immediately stopped and cooled with the same volume of acetonitrile. The samples are frozen until analyzed. The remaining concentration of undegraded test substance is determined by MSMS. The half-life (T1/2) is determined from the gradient of the signal of test substance/unit time plot, it being possible to calculate the half-life of the test substance, assuming first order kinetics, from the decrease in the concentration of the compound with time. The microsomal clearance (mC1) is calculated from mC1=1n2/T1/2/(content of microsomal protein in mg/ml)×1000 [ml/min/mg] (modified from references: Di, The Society for Biomoleculur Screening, 2003, 453-462; Obach, DMD, 1999 vol 27. N 11, 1350-1359).

A value given as a limit tells only on which side of the number the result lay.

T1 sequence (P14416 whole entry, canonical isoform): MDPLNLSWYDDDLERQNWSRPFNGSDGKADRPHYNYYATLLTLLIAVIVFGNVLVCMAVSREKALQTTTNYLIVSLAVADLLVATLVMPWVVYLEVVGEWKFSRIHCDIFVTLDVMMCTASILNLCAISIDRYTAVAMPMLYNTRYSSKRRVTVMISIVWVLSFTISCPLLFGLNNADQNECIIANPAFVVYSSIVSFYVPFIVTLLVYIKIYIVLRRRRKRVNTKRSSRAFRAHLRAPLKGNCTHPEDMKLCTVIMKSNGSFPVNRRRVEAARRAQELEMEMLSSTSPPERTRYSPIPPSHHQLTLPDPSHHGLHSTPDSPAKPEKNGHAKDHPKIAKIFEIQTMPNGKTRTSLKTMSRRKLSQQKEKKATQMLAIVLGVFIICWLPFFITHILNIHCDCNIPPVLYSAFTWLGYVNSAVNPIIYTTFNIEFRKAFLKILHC

Regarding `CC(C)(C)c1nc(C2CCCC2)cc(N2CCN(CC[C@H]3CC[C@@H](NC(=O)[C@H]4CC[C@H](O)CC4)CC3)CC2)n1` [Compound 36, trans-N-[cis-4-[2-[4-(2-tert-butyl-6-cyclopentyl-pyrimidin-4-yl)piperazin-1-yl]ethyl]cyclohexyl]-4-hydroxy-cyclohexanecarboxamide], in series [1], the “D2/D3, Ki (D2L)/Ki (D3)” value was “+++ (+++ >50)”. The microsomal CLint at 0.5 μM in series [2] was in the range of 20 to 120 µL/min/mg.
With `CC(C)(C)c1nc(C2CCC2)cc(N2CCN(CC[C@H]3CC[C@@H](NC(=O)[C@H]4CC[C@H](O)CC4)CC3)CC2)n1` [Compound 6, trans-N-[cis-4-[2-[4-(2-tert-butyl-6-cyclobutyl-pyrimidin-4-yl)piperazin-1-yl]ethyl]cyclohexyl]-4-hydroxy-cyclohexanecarboxamide], the “D2/D3, Ki (D2L)/Ki (D3)” value in series [1] is listed as “+++ (+++ >50)”. For the same compound, in series [2], the microsomal CLint at 0.5 μM lay in the range of 20 to 120 µL/min/mg.
As to `COCCc1cc(N2CCN(CC[C@H]3CC[C@H](NC(=O)[C@H]4CC[C@@H](O)CC4)CC3)CC2)nc(C(C)(C)C)n1` [Compound 4, cis-N-[trans-4-[2-[4-[2-tert-butyl-6-(2-methoxyethyl)pyrimidin-4-yl]piperazin-1-yl]ethyl]cyclohexyl]-4-hydroxy-cyclohexanecarboxamide], the “D2/D3, Ki (D2L)/Ki (D3)” value in series [1] was “++ (++ >20)”. The microsomal CLint at 0.5 μM in series [2] was greater than 120 µL/min/mg.
Consider `CC(C)(C)c1nc(C2CCC2)cc(N2CCN(CC[C@H]3CC[C@H](NC(=O)[C@H]4C[C@H](O)C4)CC3)CC2)n1.O=C(O)C(F)(F)F` [Compound 38, trans-N-[trans-4-[2-[4-(2-tert-butyl-6-cyclobutyl-pyrimidin-4-yl)piperazin-1-yl]ethyl]cyclohexyl]-3-hydroxy-cyclobutanecarboxamide; 2,2,2-trifluoroacetic acid], for which the “D2/D3, Ki (D2L)/Ki (D3)” value in series [1] is listed as “++ (++ >20)”. For the same compound, in series [2], the microsomal CLint at 0.5 μM is less than 20 µL/min/mg.
With `CC(C)(C)c1nc(N2CCN(CC[C@H]3CC[C@H](NC(=O)[C@H]4CC[C@H](O)CC4)CC3)CC2)cc(C(F)(F)F)n1` [Compound 21, trans-N-[trans-4-[2-[4-[2-tert-butyl-6-(trifluoromethyl)pyrimidin-4-yl]piperazin-1-yl]ethyl]cyclohexyl]-4-hydroxy-cyclohexanecarboxamide], the “D2/D3, Ki (D2L)/Ki (D3)” value in series [1] is on record as “++ (++ >20)”. Further, the microsomal CLint at 0.5 μM in series [2] lay in the range of 20 to 120 µL/min/mg.
On the same counts, the results for `COCCc1cc(N2CCN(CC[C@H]3C[C@@H](NC(=O)[C@H]4CC[C@H](O)CC4)C3)CC2)nc(C(C)(C)C)n1.O=C(O)C(F)(F)F` [Compound 8, trans-N-[cis-3-[2-[4-[2-tert-butyl-6-(2-methoxyethyl)pyrimidin-4-yl]piperazin-1-yl]ethyl]cyclobutyl]-4-hydroxy-cyclohexanecarboxamide; 2,2,2-trifluoroacetic acid] are “+++ (+++ >50)” and 20 to 120 µL/min/mg.
Regarding `CC(C)(C)c1nc(C2CCCC2)cc(N2CCN(CC[C@H]3CC[C@H](NC(=O)[C@H]4CC[C@H](O)CC4)CC3)CC2)n1` [Compound 35, trans-N-[trans-4-[2-[4-(2-tert-butyl-6-cyclopentyl-pyrimidin-4-yl)piperazin-1-yl]ethyl]cyclohexyl]-4-hydroxy-cyclohexanecarboxamide], the “D2/D3, Ki (D2L)/Ki (D3)” value in series [1] is “+ (+ >10)”. The microsomal CLint at 0.5 μM in series [2] lay within 20 to 120 µL/min/mg.
Regarding `CC(C)(C)c1nc(N2CCN(CC[C@H]3CC[C@@H](NC(=O)[C@H]4CC[C@H](O)CC4)CC3)CC2)cc(C(F)(F)F)n1` [Compound 23, Trans-N-[cis-4-[2-[4-[2-tert-butyl-6-(trifluoromethyl)pyrimidin-4-yl]piperazin-1-yl]ethyl]cyclohexyl]-4-hydroxy-cyclohexanecarboxamide], in series [1], the “D2/D3, Ki (D2L)/Ki (D3)” value was “+++ (+++ >50)”. Moreover, the microsomal CLint at 0.5 μM in series [2] was in the range of 20 to 120 µL/min/mg.
On the same counts, the results for `CC(C)(C)c1cc(N2CCN(CC[C@H]3CC[C@@H](NC(=O)[C@H]4CC[C@H](O)CC4)CC3)CC2)nc(C(C)(C)C)n1` [Compound 22, trans-N-[cis-4-[2-[4-(2,6-ditert-butylpyrimidin-4-yl)piperazin-1-yl]ethyl]cyclohexyl]-4-hydroxy-cyclohexanecarboxamide] are “+++ (+++ >50)” and 20 to 120 µL/min/mg.
On the same counts, the results for `CC(C)(C)c1nc(C(F)F)cc(N2CCN(CCC3CCC(NC(=O)C4CCC(O)CC4)CC3)CC2)n1` (stereo not drawn) [Compound 29, N-[4-[2-[4-[2-tert-butyl-6-(difluoromethyl)pyrimidin-4-yl]piperazin-1-yl]ethyl]cyclohexyl]-4-hydroxy-cyclohexanecarboxamide] are “+ (+ >10)” and 20 to 120 µL/min/mg.
On the same counts, the results for `CC(C)(C)c1nc(C2CCC2)cc(N2CCN(CC[C@H]3CC[C@@H](NC(=O)[C@H]4CC[C@@H](O)CC4)CC3)CC2)n1.O=C(O)C(F)(F)F` [Compound 15, Cis-N-[cis-4-[2-[4-(2-tert-butyl-6-cyclobutyl-pyrimidin-4-yl)piperazin-1-yl]ethyl]cyclohexyl]-4-hydroxy-cyclohexanecarboxamide; 2,2,2-trifluoroacetic acid] are “+++ (+++ >50)” and greater than 120 µL/min/mg.
As to `COCCc1cc(N2CCN(CC[C@H]3CC[C@@H](NC(=O)C4CC(O)(C(F)(F)F)C4)CC3)CC2)nc(C(C)(C)C)n1` (relative stereo) [Compound 26, N-[cis-4-[2-[4-[2-tert-butyl-6-(2-methoxyethyl)pyrimidin-4-yl]piperazin-1-yl]ethyl]cyclohexyl]-3-hydroxy-3-(trifluoromethyl)cyclobutanecarboxamide], in series [1], the “D2/D3, Ki (D2L)/Ki (D3)” value is reported as “+++ (+++ >50)”. In addition, the microsomal CLint at 0.5 μM in series [2] is less than 20 µL/min/mg.
For `COCCc1cc(N2CCN(CC[C@H]3CC[C@@H](NC(=O)[C@H]4CC[C@H](O)CC4)CC3)CC2)nc(C(C)(C)C)n1` [Compound 3, trans-N-[cis-4-[2-[4-[2-tert-butyl-6-(2-methoxyethyl)pyrimidin-4-yl]piperazin-1-yl]ethyl]cyclohexyl]-4-hydroxy-cyclohexanecarboxamide], the “D2/D3, Ki (D2L)/Ki (D3)” value in series [1] is “++ (++ >20)”. For the same compound, the microsomal CLint at 0.5 μM in series [2] lay in the range of 20 to 120 µL/min/mg.
As to `COCCc1cc(N2CCN(CC[C@H]3C[C@H](NC(=O)C4CCC(O)CC4)C3)CC2)nc(C(C)(C)C)n1` (relative stereo) [Compound 11, N-[trans-3-[2-[4-[2-tert-butyl-6-(2-methoxyethyl)pyrimidin-4-yl]piperazin-1-yl]ethyl]cyclobutyl]-4-hydroxy-cyclohexanecarboxamide], the “D2/D3, Ki (D2L)/Ki (D3)” value in series [1] is “++ (++ >20)”. Besides, the microsomal CLint at 0.5 μM in series [2] is 20 to 120 µL/min/mg.
On the same counts, the results for `COCCc1cc(N2CCN(CC[C@H]3CC[C@H](NC(=O)[C@H]4CC[C@H](O)CC4)CC3)CC2)nc(C(C)(C)C)n1` [Compound 2, trans-N-[trans-4-[2-[4-[2-tert-butyl-6-(2-methoxyethyl)pyrimidin-4-yl]piperazin-1-yl]ethyl]cyclohexyl]-4-hydroxy-cyclohexanecarboxamide] are “++ (++ >20)” and 20 to 120 µL/min/mg.
In the case of `COCCc1cc(N2CCN(CC[C@H]3CC[C@@H](NC(=O)[C@H]4CC[C@@H](O)CC4)CC3)CC2)nc(C(C)(C)C)n1` [Compound 5, Cis-N-[cis-4-[2-[4-[2-tert-butyl-6-(2-methoxyethyl)pyrimidin-4-yl]piperazin-1-yl]ethyl]cyclohexyl]-4-hydroxy-cyclohexanecarboxamide], the “D2/D3, Ki (D2L)/Ki (D3)” value in series [1] is reported as “++ (++ >20)”. In addition, the microsomal CLint at 0.5 μM in series [2] was greater than 120 µL/min/mg.
For the compound `CC(C)(C)c1nc(C2CCC2)cc(N2CCN(CC[C@H]3C[C@@H](NC(=O)[C@H]4CC[C@H](O)CC4)C3)CC2)n1` [Compound 10, Trans-N-[cis-3-[2-[4-(2-tert-butyl-6-cyclobutyl-pyrimidin-4-yl)piperazin-1-yl]ethyl]cyclobutyl]-4-hydroxy-cyclohexanecarboxamide], the “D2/D3, Ki (D2L)/Ki (D3)” value in series [1] was “+++ (+++ >50)”. For the same compound, the microsomal CLint at 0.5 μM in series [2] lay within 20 to 120 µL/min/mg.
On the same counts, the results for `COCCc1cc(N2CCN(CCC3CCC(NC(=O)C4CCC(O)CC4)CC3)C[C@H]2C)nc(C(C)(C)C)n1` (stereo partly drawn) [Compound 33, N-[4-[2-[(3R)-4-[2-tert-butyl-6-(2-methoxyethyl)pyrimidin-4-yl]-3-methyl-piperazin-1-yl]ethyl]cyclohexyl]-4-hydroxy-cyclohexanecarboxamide] are “+++ (+++ >50)” and 20 to 120 µL/min/mg.
